Measurements reported in patent US20090036528A1 (priority 2007, published 2009).
Where a SMILES comes first, the peptide text is derived from it.

Experiments:
[1] = system: Stratum Corneum Tryptic Enzyme (SCTE); details: reported rosacea study; cited from earlier work
[2] = FUTHAN compared with aprotinin and AEBSF; cited from earlier work
KLK5/SCTE = target: T1, KLK5/SCTE (Homo sapiens, UniProt Q9Y337); assay: enzyme inhibition KLK5/SCTE; type: biochemical; details: approximate; read-out: IC50 (50% inhibition) KLK5/SCTE
T1 sequence (Q9Y337 23-293): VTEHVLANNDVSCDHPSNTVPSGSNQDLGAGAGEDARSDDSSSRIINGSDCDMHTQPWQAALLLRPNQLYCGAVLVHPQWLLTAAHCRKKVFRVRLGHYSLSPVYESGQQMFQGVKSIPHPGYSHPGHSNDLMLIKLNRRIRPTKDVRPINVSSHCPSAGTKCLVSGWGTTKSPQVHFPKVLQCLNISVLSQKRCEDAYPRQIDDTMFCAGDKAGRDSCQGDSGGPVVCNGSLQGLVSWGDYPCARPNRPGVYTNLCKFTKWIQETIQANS
Excerpt: (§1) It is understood that aspartame, FUTHAN, and combinations thereof may be utilized.

KLK7/SCCE = KLK7/SCCE (Homo sapiens, UniProt P49862); assay: enzyme inhibition KLK7/SCCE; type: biochemical; details: approximate; read-out: IC50 (50% inhibition) KLK7/SCCE
Excerpt: as §1

pancreatic kallikrein = pancreatic kallikrein (Homo sapiens, UniProt P06870); assay: enzyme inhibition pancreatic kallikrein; type: biochemical; details: approximate; read-out: IC50 (50% inhibition) pancreatic kallikrein
Excerpt: Enzyme inhibition data was collected for KLK5/SCTE, KLK7/SCCE7, pancreatic kallikrein and trypsin (control).

[3] = system: total protease activity in skin extracts; assay: inhibition of total protease activity in skin extracts; type: biochemical, human; details: skin extracts from three individuals; FIG. 2
various serine proteases = assay: inhibition of various serine proteases compared with known inhibitors; type: biochemical; details: FIG. 3
chymotrypsin = chymotrypsin (Bos taurus, UniProt P00766); details: literature (Niinobe et al., Fujii et al.); cited from earlier work
[4] = pigs fed aspartame over a two month period: bleeding time and platelet count; type: in vivo; details: pigs fed 75-300 mg aspartame/100 weight/day over a two month period
Excerpt: Recent chemical evidence has documented the mechanism of the analgesia and blood thinning properties of ASP as attributable in part to the compound's ability to inhibit the cyclo-oxygenase enzymes known as COX-1 and COX-2. […] It is contemplated that a preferred embodiment may use a coated tablet or pill that may prevent or reduce hydrolysis of the aspartame ester group in the acidic conditions of the stomach.

SRT-ORT mouse model = assay: SRT-ORT osteoarthritis mouse model, aspartame chow, X-ray analyses; type: in vivo; details: chow containing 4 mg Aspartame/g, 12-18 months, vs non-supplemented chow
Excerpt: It has been reported that isotopically labeled Aspartame/Asp-Phe distributes to various tissues including the bones (See Aspartame Physiology and Biochemistry, Ed. Stegink, Lewis, D. and Filner, L. J. (1984), Marcel Decker, NY, Chapter 8, “Tissue Distribution of Orally Administered Isotopically Labeled Aspartame in Rat.” By Matsuzawa, Y., O'Hara, Y., pp. 161-199.). It is well established that the ester group on aspartame is labile to both acid hydrolysis, as exists in the stomach, and to enzyme esterases that are common to all body fluids and tissues. […] It is contemplated that this mechanism will enhance the transfer of essential minerals from the digestive system to the blood, tissues, and cells. Further evidence that aspartame (Asp-Phe) ingestion contributes to muscle (tissue) density and bone density enhancement comes from mouse studies. The SRT-ORT mouse model is a genetically deficient mouse strain obtained from NIH with a natural history of developing osteoarthritis. Blinded experiments were conducted with littermates divided into two groups, one fed chow containing 4 mg Aspartame/g. and the other fed non-supplemented chow over a period of 12-18 months. X-ray analyses were performed on the cortex and marrow spaces of the right and left femurs, as well as the quadriceps in the femoris area and joint calcification. […] The increase in calcification in the treated animal cohort at the injured joints gave a P value <0.0001. An unexpected increase in quadriceps muscle mass index for the treated animals gave a P value of 0.0185. These analyses were preformed on an n value of 23 animals in the treated set and 18 animals in the controls. Therefore, it is contemplated that animals fed aspartame over an extended time period have increased bone density and muscle mass indicating increased or enhanced calcium, and perhaps other minerals, bioavailability and utility.

[5] = aspartame lotion on acetic acid burn; type: in vivo, human; details: lotion application; burn from acetic acid spilled on an individual's leg
Excerpt: It is also contemplated that the current invention may also help the redness of the skin and/or promote healing for the same injury.

[6] = chronic anemia patients using fruit flavored drink with aspartame; type: in vivo, human; details: fruit flavored drink combination with aspartame
Excerpt: The current invention may utilize a pharmaceutically effective amount of aspartame or Asp-Phe for the treatment of sickle cell anemia and or chronic anemia in general. […] It is also contemplated that the current invention may be utilized as a food supplement product with beneficial attributes to chronic anemia patients which may include most cancer patients under treatment.

COX-1 = COX-1 (Homo sapiens, UniProt P23219); assay: COX-1 enzyme inhibition
COX-2 = target: T2, COX-2 (Homo sapiens, UniProt P35354); assay: COX-2 enzyme inhibition
T2 sequence (P35354 18-604): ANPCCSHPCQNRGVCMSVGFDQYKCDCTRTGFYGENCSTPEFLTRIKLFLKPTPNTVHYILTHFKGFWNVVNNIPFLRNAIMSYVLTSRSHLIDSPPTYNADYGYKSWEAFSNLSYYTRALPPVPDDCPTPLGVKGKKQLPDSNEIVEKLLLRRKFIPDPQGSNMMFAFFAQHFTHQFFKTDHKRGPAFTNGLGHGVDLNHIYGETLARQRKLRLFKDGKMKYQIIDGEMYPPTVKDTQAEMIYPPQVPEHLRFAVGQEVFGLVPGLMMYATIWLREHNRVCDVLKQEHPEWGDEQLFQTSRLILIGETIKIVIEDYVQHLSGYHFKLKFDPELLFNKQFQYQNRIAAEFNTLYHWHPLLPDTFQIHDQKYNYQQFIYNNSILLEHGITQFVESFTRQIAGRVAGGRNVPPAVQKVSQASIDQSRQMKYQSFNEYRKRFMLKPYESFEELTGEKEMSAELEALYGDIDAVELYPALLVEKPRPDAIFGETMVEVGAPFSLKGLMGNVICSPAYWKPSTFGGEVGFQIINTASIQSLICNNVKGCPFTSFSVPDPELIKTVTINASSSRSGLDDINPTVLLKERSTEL

[7] = bone density in human subjects ingesting aspartame (bone scans, dental records); details: subject
[8] = in excess of 300 mg/day for several years

Sequence of KLK7/SCCE (P49862 30-253): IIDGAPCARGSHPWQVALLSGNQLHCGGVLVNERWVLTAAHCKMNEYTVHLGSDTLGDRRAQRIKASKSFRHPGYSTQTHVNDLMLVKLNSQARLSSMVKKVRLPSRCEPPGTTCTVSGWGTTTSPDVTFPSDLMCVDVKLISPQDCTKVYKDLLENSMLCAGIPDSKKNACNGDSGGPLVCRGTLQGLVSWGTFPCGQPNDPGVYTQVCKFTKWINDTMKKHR
Sequence of pancreatic kallikrein (P06870 25-262): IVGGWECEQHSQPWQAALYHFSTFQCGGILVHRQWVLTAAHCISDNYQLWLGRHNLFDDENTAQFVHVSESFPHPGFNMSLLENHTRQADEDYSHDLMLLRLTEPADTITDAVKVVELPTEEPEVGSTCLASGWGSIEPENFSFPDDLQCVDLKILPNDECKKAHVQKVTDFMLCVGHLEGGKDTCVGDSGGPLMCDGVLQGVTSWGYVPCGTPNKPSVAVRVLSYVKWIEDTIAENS
Sequence of COX-1 (P23219 24-599): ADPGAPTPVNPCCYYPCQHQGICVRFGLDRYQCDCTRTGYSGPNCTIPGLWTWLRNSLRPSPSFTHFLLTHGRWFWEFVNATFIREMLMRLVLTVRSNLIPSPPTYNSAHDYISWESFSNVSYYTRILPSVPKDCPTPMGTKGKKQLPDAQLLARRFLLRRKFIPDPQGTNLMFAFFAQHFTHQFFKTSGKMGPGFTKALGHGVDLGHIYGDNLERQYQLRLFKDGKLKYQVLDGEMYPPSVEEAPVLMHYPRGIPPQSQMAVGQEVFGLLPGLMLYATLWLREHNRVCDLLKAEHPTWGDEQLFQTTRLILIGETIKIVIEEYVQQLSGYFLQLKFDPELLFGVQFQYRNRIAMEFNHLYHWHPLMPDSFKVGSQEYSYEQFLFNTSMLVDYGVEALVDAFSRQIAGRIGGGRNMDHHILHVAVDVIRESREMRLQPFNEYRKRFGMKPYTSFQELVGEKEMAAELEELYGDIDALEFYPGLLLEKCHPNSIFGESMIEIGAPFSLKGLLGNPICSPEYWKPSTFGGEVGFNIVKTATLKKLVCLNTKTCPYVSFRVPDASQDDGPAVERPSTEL

Molecule: NCCc1ccc(S(=O)(=O)F)cc1 [AEBSF, 4-(2-aminoethyl)-benzenesulfonyl fluoride]
- inhibition of SCTE [1]: effective in inhibiting this enzyme
- toxicity / side effects [2]: known serious side effects

Molecule: CS(=O)(=O)O.CS(=O)(=O)O.N=C(N)Nc1ccc(C(=O)Oc2ccc3cc(C(=N)N)ccc3c2)cc1 [FUTHAN, 6-amidino-2-naphthyl p-guanidinobenzoate dimethanesulfonate]
- IC50 (KLK5/SCTE): ~2000 nM
- IC50 (KLK7/SCCE): ~80 µM
- IC50 (pancreatic kallikrein): ~20 µM
- inhibition of total protease activity in skin extracts [3]: efficacy of the inhibitor
- inhibitor strength compared with aprotinin and AEBSF (various serine proteases): weaker
- inhibition of chymotrypsin or enzymes with chymotrypsin specificity (chymotrypsin): not chymotrypsin

Molecule: COC(=O)[C@H](Cc1ccccc1)NC(=O)[C@@H](N)CC(=O)O [aspartame, N-L-alpha-aspartyl-L-phenylalanine 1-methyl ester] (H-Asp-Phe-OMe)
- bleeding times [4]: significantly increased
- platelet counts [4]: elevated
- calcification at the injured joints (SRT-ORT mouse model; P value <0.0001): increase
- cortical bone density (SRT-ORT mouse model; P value of 0.0058): increase
- quadriceps muscle mass index (SRT-ORT mouse model; P value of 0.0185): increase
- pain associated with a burn [5]: relieved the pain
- energy and muscle pain in chronic anemia patients [6]: more energy and less muscle pain
- IC50 (COX-1): < 1000 nM
- IC50 (COX-2): < 1000 nM
- bone density from dental records ([7]; 150-300 mg/day over several years): bone density increase
- density of the right and left femur, mean [7, 8]: 1.2 g/cm2
- femur density relative to the density of a young adult [7, 8]: 122%
- lumbar spine bone density (L1-L4) [7, 8]: 1.74 g/cm2
- lumbar spine bone density relative to the density of a young adult [7, 8]: 148%

Molecule: Aprotinin
- inhibition of SCTE [1]: effective in inhibiting this enzyme
- toxicity / side effects [2]: known serious side effects
